# In publication PMC7038139, “Novel Peptide CM 7 Targeted c-Met with Antitumor Activity” (Molecules, 2020):
# “Also recorded” adds a separate entry of the source.
# Legend:
# [1] = test system: c-Met and its downstream signaling molecules in MKN-28 cells; test: Western blot of c-Met signaling, MKN-28; format: cell-based, Human
# Protocol: (§1) Western blot analysis was performed using an extraction buffer as described. MKN-45, MKN-28 and U87 cells were cultured in serum-free medium overnight, then treated with the indicated dose of peptide CM 7 for 24 h at 37 °C after stimulated without or with HGF for 15 min. Next, total cell lysates were separated by 12% SDS-polyacrylamide gel (SDS-PAGE) and transferred to polyvinylidene difluoride (PVDF) membranes. The PVDF membranes were probed with following primary antibodies: anti-phospho-Met (Tyr1234/1235, (Cell Signaling Technology, Beverly, MA, USA), anti-Met (Affinity, USA), anti-phospho-AKT (Ser473, (Affinity, USA)), anti-AKT (Affinity, USA), anti-phospho-Erk1/2 (Thr202/Tyr204, (Affinity, USA)), anti-Erk1/2 (Affinity, USA), anti-E-cadherin (WanleiBio, Shengyang, China), and anti-GAPDH (Multi Sciences, Hangzhou, China). Then, horseradish-peroxidase-conjugated anti-rabbit IgG was used as a second antibody. The immunoreactive proteins were exposed using an enhanced chemiluminescence detection reagent (WanleiBio, Shengyang, China). After sacrificing the mice and isolating the tumor tissue, Western blot was performed as previously described.
# MKN-45 cells = test: Wound healing (migration) assay; format: cell-based, Human; settings: 1% FBS, 48 h, n = 3, dose-dependent
# Protocol: For the wound healing assay, MKN-45 cells (4 × 10^4 cells/well) were seeded in a 48-well culture plate. When the cells were almost completely fused, a sterile 200 μL pipette tip was used to generate a straight wound line across the monolayer cell. Then, the cells were washed with PBS and incubated in RPMI 1640 medium containing 1% FBS with CM 7 or Crizotinib at the indicated concentration for 48 h. The experiment was performed in triplicate, and the cell migration toward the gap was captured using the microscope.
# [2] = test system: c-Met and its downstream signaling molecules in U87 cells; test: Western blot of c-Met signaling, U87 (HGF-induced); format: cell-based, human; settings: 24 h
# Protocol: as §1
# [3] = Body weight / tolerability in tumor-bearing mice; format: in vivo, Balb/c nude mice; settings: each peptide group (5, 10, 20 mg/kg s.c. twice a day, 28 days)
# Protocol: (§2) Four-to-five-week-old female Balb/c nude mice, housed in specific pathogen-free conditions, were used to evaluate antitumor activity in vivo. All animal studies were performed according to the institutional ethical guidelines for animal care.
# (§3) MKN-45 cells at a density of 5 × 10^6 in 200 μL were injected subcutaneously into the flank of the mice. CM 7 (5, 10, or 20 mg/kg) was injected subcutaneously for each group twice a day for four weeks. As a positive control, Crizotinib (50 mg/kg) was given to tumor-bearing mice by gavage once a day for a total of 28 days. The tumor volume was measured with calipers in two dimensions: tumor volume = 1/2 × a × b^2, where a is the length of the tumor, and b is the width of the tumor. All of the mice were sacrificed on day 42, and the tumor tissue was isolated and weighed.
# Figure S1: The chemical structure, molecular mass, and purity of peptide FITC-CM 7. […] (C) The purity of peptide FITC-CM 7 was determined by high-performance liquid chromatography (HPLC) to be 97.3%. […] (C) The purity of peptide FITC-CM 7 was determined by HPLC to be 96.7%. Figure S3: The mean body weight of tumor-bearing mice treated daily for four weeks with vehicle (0.2% DMSO) or Crizotinib (50 mg/kg) by gavage, and the tested peptide CM 7 or vehicle (PBS) that was subcutaneously injected twice a day for four weeks was measured every other day during the study. […]
# [4] = test system: c-Met and its downstream signaling molecules in MKN-45 cells; test: Western blot of c-Met signaling, MKN-45; format: cell-based, Human; settings: 24 h
# Protocol: as §1
# MKN-45 tumor xenografts = test: MKN-45 xenograft antitumor activity in nude mice; format: in vivo, Human
# Protocol: as §2, §3
substance,measurement,setting,value
"DQIIANN [CM 7, Novel peptide DQIIANN targeting the tyrosine kinase receptor c-Met]",Expression of E-cadherin,[1],no effect
same,"Phosphorylation of c-Met, Akt and Erk",[1],not MKN-28 cells; also recorded: no effect
same,Inhibition of cell migration,MKN-45 cells,"moderate regulation; also recorded: significantly inhibit cell invasion (Figure 7A,C) and cell migration"
same,Expression of E-cadherin,[2],increase the expression of E-cadherin
same,"Phosphorylation of c-Met, Akt and Erk","[2]; HGF 15 min, dose-dependent",effectively inhibit
same,Weight loss of mice,[3],no significant weight loss
same,Tolerability / toxicity,[3]; from body weight,well tolerated and slightly or nontoxic
same,Expression of E-cadherin,[4],increase the expression of E-cadherin
same,"Phosphorylation of c-Met, Akt and Erk",[4]; dose-dependent,effectively inhibit
same,Inhibition of tumor growth versus vehicle (PBS),"MKN-45 tumor xenografts; 20 mg/kg s.c. twice a day, 28 days, n = 5–6",significantly inhibited tumor growth
same,Inhibition of tumor growth relative to Crizotinib,"MKN-45 tumor xenografts; CM 7 20 mg/kg s.c. twice a day vs Crizotinib 50 mg/kg by gavage daily, 28 days",weaker than the positive control group (Crizotinib)
same,Growth inhibition rate of tumor masses,"MKN-45 tumor xenografts; xenograft mouse model using MKN-45 cells, dose not printed with the value (5, 10, 20 mg/kg s.c. twice a day tested)",62%
